Measurements from the NIST ThermoML archive (doi:10.1007/s10765-008-0482-1).
“And” between values parts separate entries of the source, which are not always exact repeats. Equal values may be shown once. Numbers after ± are expanded uncertainties.

Assay: xn = mol fraction of the nth substance listed
Settings: Fluid (supercritical or subcritical phases), Parallel plate method

Compound: CC [ethane] + O=C=O
- thermal conductivity (291.06 K, Amount density=2940 mol/m3, x2 = 0.5): 0.0276 ± 0.0015 W/m/K
- thermal conductivity (291.06 K, Amount density=6960 mol/m3, x2 = 0.5): 0.099 ± 0.0025 W/m/K
- thermal conductivity (291.07 K, Amount density=5650 mol/m3, x2 = 0.5): 0.0554 ± 0.0021 W/m/K
- thermal conductivity (291.07 K, Amount density=7530 mol/m3, x2 = 0.5): 0.114 ± 0.005 W/m/K
- thermal conductivity (291.08 K, Amount density=435 mol/m3, x2 = 0.5): 0.0191 ± 0.0013 W/m/K
- thermal conductivity (291.11 K, Amount density=6960 mol/m3, x2 = 0.5): 0.104 ± 0.0026 W/m/K
- thermal conductivity (291.17 K, Amount density=6960 mol/m3, x2 = 0.5): 0.11 ± 0.0027 W/m/K
- thermal conductivity (291.18 K, Amount density=6960 mol/m3, x2 = 0.5): 0.108 ± 0.0027 W/m/K
- thermal conductivity (291.2 K, Amount density=7530 mol/m3, x2 = 0.5): 0.144 ± 0.0049 W/m/K
- thermal conductivity (291.24 K, Amount density=7730 mol/m3, x2 = 0.5): 0.151 ± 0.011 W/m/K
- thermal conductivity (291.26 K, Amount density=7530 mol/m3, x2 = 0.5): 0.159 ± 0.0056 W/m/K
- thermal conductivity (291.29 K, Amount density=7530 mol/m3, x2 = 0.5): 0.158 ± 0.0057 W/m/K
- thermal conductivity (291.32 K, Amount density=7530 mol/m3, x2 = 0.5): 0.21 ± 0.028 W/m/K
- thermal conductivity (291.33 K, Amount density=7530 mol/m3, x2 = 0.5): 0.206 ± 0.0085 W/m/K
- thermal conductivity (291.34 K, Amount density=435 mol/m3, x2 = 0.5): 0.0192 ± 0.0013 W/m/K
- thermal conductivity (291.34 K, Amount density=2940 mol/m3, x2 = 0.5): 0.0274 ± 0.0014 W/m/K
- thermal conductivity (291.34 K, Amount density=6960 mol/m3, x2 = 0.5): 0.11 ± 0.0027 W/m/K
- thermal conductivity (291.34 K, Amount density=7730 mol/m3, x2 = 0.5): 0.203 ± 0.0049 W/m/K
- thermal conductivity (291.35 K, Amount density=5650 mol/m3, x2 = 0.5): 0.0542 ± 0.0018 W/m/K
- thermal conductivity (291.35 K, Amount density=6960 mol/m3, x2 = 0.5): 0.111 ± 0.0027 W/m/K
- thermal conductivity (291.35 K, Amount density=7530 mol/m3, x2 = 0.5): 0.172 ± 0.0054 W/m/K
- thermal conductivity (291.5 K, Amount density=435 mol/m3, x2 = 0.5): 0.0192 ± 0.0013 W/m/K
- thermal conductivity (291.55 K, Amount density=2940 mol/m3, x2 = 0.5): 0.0274 ± 0.0014 W/m/K
- thermal conductivity (291.55 K, Amount density=7730 mol/m3, x2 = 0.5): 0.128 ± 0.0039 W/m/K
- thermal conductivity (291.57 K, Amount density=5650 mol/m3, x2 = 0.5): 0.0553 ± 0.0019 W/m/K
- thermal conductivity (291.57 K, Amount density=7530 mol/m3, x2 = 0.5): 0.139 ± 0.0034 W/m/K
- thermal conductivity (292.05 K, Amount density=6960 mol/m3, x2 = 0.5): 0.099 ± 0.0025 W/m/K and 0.0913 ± 0.0024 W/m/K
- thermal conductivity (292.05 K, Amount density=7530 mol/m3, x2 = 0.5): 0.106 ± 0.0027 W/m/K
- thermal conductivity (292.05 K, Amount density=7730 mol/m3, x2 = 0.5): 0.102 ± 0.0026 W/m/K
- thermal conductivity (292.08 K, Amount density=435 mol/m3, x2 = 0.5): 0.0192 ± 0.0013 W/m/K
- thermal conductivity (292.09 K, Amount density=5650 mol/m3, x2 = 0.5): 0.0546 ± 0.0018 W/m/K
- thermal conductivity (292.11 K, Amount density=2940 mol/m3, x2 = 0.5): 0.0276 ± 0.0014 W/m/K
- thermal conductivity (292.64 K, Amount density=6630 mol/m3, x2 = 0.74): 0.0593 ± 0.0019 W/m/K
- thermal conductivity (293.08 K, Amount density=6710 mol/m3, x2 = 0.26): 0.0687 ± 0.002 W/m/K
- thermal conductivity (293.08 K, Amount density=7530 mol/m3, x2 = 0.5): 0.0833 ± 0.0023 W/m/K
- thermal conductivity (293.09 K, Amount density=6960 mol/m3, x2 = 0.5): 0.0861 ± 0.0023 W/m/K
- thermal conductivity (293.11 K, Amount density=7730 mol/m3, x2 = 0.5): 0.0798 ± 0.0022 W/m/K
- thermal conductivity (293.13 K, Amount density=2940 mol/m3, x2 = 0.5): 0.0277 ± 0.0014 W/m/K
- thermal conductivity (293.14 K, Amount density=5650 mol/m3, x2 = 0.5): 0.052 ± 0.0018 W/m/K
- thermal conductivity (293.15 K, Amount density=435 mol/m3, x2 = 0.5): 0.0193 ± 0.0013 W/m/K
- thermal conductivity (293.15 K, Amount density=877 mol/m3, x2 = 0.26): 0.0213 ± 0.0013 W/m/K
- thermal conductivity (293.15 K, Amount density=6630 mol/m3, x2 = 0.74): 0.0578 ± 0.0019 W/m/K
- thermal conductivity (293.15 K, Amount density=9120 mol/m3, x2 = 0.74): 0.213 ± 0.014 W/m/K
- thermal conductivity (293.17 K, Amount density=9120 mol/m3, x2 = 0.74): 0.16 ± 0.0036 W/m/K
- thermal conductivity (293.24 K, Amount density=9120 mol/m3, x2 = 0.74): 0.156 ± 0.009 W/m/K
- thermal conductivity (293.34 K, Amount density=9120 mol/m3, x2 = 0.74): 0.135 ± 0.004 W/m/K
- thermal conductivity (293.53 K, Amount density=9120 mol/m3, x2 = 0.74): 0.116 ± 0.0029 W/m/K
- thermal conductivity (293.64 K, Amount density=3090 mol/m3, x2 = 0.26): 0.0314 ± 0.0015 W/m/K
- thermal conductivity (293.95 K, Amount density=9120 mol/m3, x2 = 0.74): 0.101 ± 0.0027 W/m/K
- thermal conductivity (294.32 K, Amount density=9120 mol/m3, x2 = 0.74): 0.0842 ± 0.0023 W/m/K
- thermal conductivity (294.72 K, Amount density=9120 mol/m3, x2 = 0.74): 0.0824 ± 0.0022 W/m/K
- thermal conductivity (294.96 K, Amount density=6710 mol/m3, x2 = 0.26): 0.075 ± 0.0021 W/m/K
- thermal conductivity (295.61 K, Amount density=7450 mol/m3, x2 = 0.25): 0.0795 ± 0.0022 W/m/K
- thermal conductivity (295.7 K, Amount density=6960 mol/m3, x2 = 0.5): 0.0639 ± 0.002 W/m/K
- thermal conductivity (295.73 K, Amount density=6710 mol/m3, x2 = 0.26): 0.0845 ± 0.0023 W/m/K
- thermal conductivity (295.76 K, Amount density=7450 mol/m3, x2 = 0.25): 0.0843 ± 0.0024 W/m/K
- thermal conductivity (295.87 K, Amount density=7450 mol/m3, x2 = 0.25): 0.0833 ± 0.0024 W/m/K
- thermal conductivity (295.98 K, Amount density=7450 mol/m3, x2 = 0.25): 0.0881 ± 0.0026 W/m/K
- thermal conductivity (296.02 K, Amount density=7530 mol/m3, x2 = 0.5): 0.0642 ± 0.002 W/m/K
- thermal conductivity (296.02 K, Amount density=7730 mol/m3, x2 = 0.5): 0.0595 ± 0.0019 W/m/K
- thermal conductivity (296.03 K, Amount density=9120 mol/m3, x2 = 0.74): 0.0663 ± 0.002 W/m/K
- thermal conductivity (296.04 K, Amount density=5650 mol/m3, x2 = 0.5): 0.047 ± 0.0017 W/m/K
- thermal conductivity (296.05 K, Amount density=6630 mol/m3, x2 = 0.74): 0.0507 ± 0.0018 W/m/K
- thermal conductivity (296.05 K, Amount density=6710 mol/m3, x2 = 0.26): 0.099 ± 0.0043 W/m/K and 0.101 ± 0.0046 W/m/K
- thermal conductivity (296.06 K, Amount density=435 mol/m3, x2 = 0.5): 0.0196 ± 0.0013 W/m/K
- thermal conductivity (296.06 K, Amount density=6630 mol/m3, x2 = 0.74): 0.0506 ± 0.0018 W/m/K
- thermal conductivity (296.06 K, Amount density=8450 mol/m3, x2 = 0.25): 0.112 ± 0.0058 W/m/K
- thermal conductivity (296.07 K, Amount density=2940 mol/m3, x2 = 0.5): 0.0278 ± 0.0014 W/m/K
- thermal conductivity (296.07 K, Amount density=6960 mol/m3, x2 = 0.5): 0.062 ± 0.0019 W/m/K
- thermal conductivity (296.07 K, Amount density=7450 mol/m3, x2 = 0.25): 0.0888 ± 0.0024 W/m/K
- thermal conductivity (296.1 K, Amount density=6710 mol/m3, x2 = 0.26): 0.0958 ± 0.0031 W/m/K
- thermal conductivity (296.11 K, Amount density=8450 mol/m3, x2 = 0.25): 0.11 ± 0.0034 W/m/K
- thermal conductivity (296.12 K, Amount density=446 mol/m3, x2 = 0.25): 0.0209 ± 0.0013 W/m/K
- thermal conductivity (296.14 K, Amount density=2940 mol/m3, x2 = 0.25): 0.0304 ± 0.0016 W/m/K
- thermal conductivity (296.14 K, Amount density=10780 mol/m3, x2 = 0.25): 0.0692 ± 0.002 W/m/K
- thermal conductivity (296.18 K, Amount density=5680 mol/m3, x2 = 0.25): 0.075 ± 0.0022 W/m/K
- thermal conductivity (296.18 K, Amount density=7490 mol/m3, x2 = 0.25): 0.0914 ± 0.0031 W/m/K
- thermal conductivity (296.19 K, Amount density=5680 mol/m3, x2 = 0.25): 0.0751 ± 0.0022 W/m/K
- thermal conductivity (296.2 K, Amount density=6830 mol/m3, x2 = 0.25): 0.0909 ± 0.0027 W/m/K
- thermal conductivity (296.21 K, Amount density=8450 mol/m3, x2 = 0.25): 0.107 ± 0.0029 W/m/K
- thermal conductivity (296.22 K, Amount density=6830 mol/m3, x2 = 0.25): 0.0855 ± 0.0025 W/m/K
- thermal conductivity (296.22 K, Amount density=7450 mol/m3, x2 = 0.25): 0.0888 ± 0.0033 W/m/K and 0.099 ± 0.0036 W/m/K
- thermal conductivity (296.24 K, Amount density=2940 mol/m3, x2 = 0.25): 0.0312 ± 0.0016 W/m/K
- thermal conductivity (296.24 K, Amount density=6710 mol/m3, x2 = 0.26): 0.118 ± 0.0045 W/m/K
- thermal conductivity (296.29 K, Amount density=5680 mol/m3, x2 = 0.25): 0.0757 ± 0.0021 W/m/K
- thermal conductivity (296.31 K, Amount density=7490 mol/m3, x2 = 0.25): 0.102 ± 0.0033 W/m/K
- thermal conductivity (296.34 K, Amount density=6710 mol/m3, x2 = 0.26): 0.159 ± 0.0056 W/m/K
- thermal conductivity (296.34 K, Amount density=7490 mol/m3, x2 = 0.25): 0.107 ± 0.0036 W/m/K
- thermal conductivity (296.36 K, Amount density=6710 mol/m3, x2 = 0.26): 0.166 ± 0.0059 W/m/K
- thermal conductivity (296.38 K, Amount density=6710 mol/m3, x2 = 0.26): 0.147 ± 0.0054 W/m/K and 0.193 ± 0.0067 W/m/K and 0.172 ± 0.0061 W/m/K
- thermal conductivity (296.39 K, Amount density=6710 mol/m3, x2 = 0.26): 0.166 ± 0.0045 W/m/K
- thermal conductivity (296.4 K, Amount density=6710 mol/m3, x2 = 0.26): 0.18 ± 0.0049 W/m/K
- thermal conductivity (296.4 K, Amount density=7450 mol/m3, x2 = 0.25): 0.124 ± 0.0037 W/m/K
- thermal conductivity (296.4 K, Amount density=7490 mol/m3, x2 = 0.25): 0.114 ± 0.0064 W/m/K
- thermal conductivity (296.41 K, Amount density=7450 mol/m3, x2 = 0.25): 0.117 ± 0.0035 W/m/K
- thermal conductivity (296.44 K, Amount density=6710 mol/m3, x2 = 0.26): 0.167 ± 0.0044 W/m/K
- thermal conductivity (296.44 K, Amount density=7490 mol/m3, x2 = 0.25): 0.124 ± 0.0065 W/m/K and 0.13 ± 0.0066 W/m/K
- thermal conductivity (296.45 K, Amount density=5680 mol/m3, x2 = 0.25): 0.0719 ± 0.0021 W/m/K
- thermal conductivity (296.46 K, Amount density=6830 mol/m3, x2 = 0.25): 0.102 ± 0.0036 W/m/K
- thermal conductivity (296.52 K, Amount density=2940 mol/m3, x2 = 0.25): 0.0308 ± 0.0015 W/m/K
- thermal conductivity (296.52 K, Amount density=6710 mol/m3, x2 = 0.26): 0.135 ± 0.0035 W/m/K
- thermal conductivity (296.52 K, Amount density=7450 mol/m3, x2 = 0.25): 0.131 ± 0.0073 W/m/K
- thermal conductivity (296.54 K, Amount density=7490 mol/m3, x2 = 0.25): 0.166 ± 0.0044 W/m/K
- thermal conductivity (296.56 K, Amount density=446 mol/m3, x2 = 0.25): 0.0209 ± 0.0013 W/m/K
- thermal conductivity (296.58 K, Amount density=7450 mol/m3, x2 = 0.25): 0.157 ± 0.01 W/m/K
- thermal conductivity (296.62 K, Amount density=7450 mol/m3, x2 = 0.25): 0.184 ± 0.0039 W/m/K
